From article PMC2765639 (PLoS Neglected Tropical Diseases, 2009)
Like-named read-outs stand apart in the source and are kept apart here. Each block holds one compound with its values, some of them ahead of it.

Experiments:
[1] = test system: L. major axenic amastigote-like population; assay: L. major axenic amastigote-like alamar blue assay (pH 4.9); assay type: cell-based, Leishmania major; details: for growth inhibitory activity in axenic amastigote-like assay: pH 4.9
L. major promastigotes [2] = assay: L. major promastigote drug susceptibility assay (alamar blue, 384-well); assay type: cell-based, Leishmania major
Experimental: Promastigotes were grown in vented T75 tissue culture flasks and maintained at 28°C. Promastigote cultures were initiated at 10^5 parasites per mL and subcultured every 3–4 days. L. major promastigote counts were performed in duplicate using a hemocytometer and particle counter (Beckman Coulter, Fullerton, CA). For HTS assays, L. major promastigote cultures were harvested during exponential growth phase (∼2.0–3.0×10^7 parasites/mL) and were not maintained past passage 20.
The final test compound concentration was 10 µM with a constant DMSO concentration of 1% in each assay well.
The L. major promastigote drug susceptibility assay was performed in a final volume of 25 µL using our previously described 384-well microtiter plate format,[39]. For automated HTS procedures, L. major promastigotes (5,000 parasites/22 µL) in complete growth medium were seeded into each well of the microtiter plates using a MAPC2 bulk dispenser (Titertek, Huntsville, AL). Test and control compounds (3 µL) were added to individual wells using a Velocity 11 V-prep (Menlo Park, CA) liquid handling system, equipped with a 384-well dispensing head, followed by centrifugation at 50 g for 1 min. […] Assay plates were allowed to incubate for 44 h at 28°C in the presence of 5% CO2. Five µL of alamar blue reagent were added to each assay plate well and incubated for 4 h at 28°C with 5% CO2. Data were captured on a Molecular Devices SpectraMax M5 (excitation560; emission590). Individual assay plate Z-factors were derived from the vehicle and positive controls, and data from plates were used only if Z-factors were >0.5 [50].
The assays were performed in duplicate with a final 10-point concentration range spanning 0.01–5.00 µM.

L. major promastigotes [3] = assay: Flow cytometer-based growth inhibition and cytotoxicity assay; details: 48 h, read-out: L. major promastigote EC50 (AVE±SD) Confirmation Flow Cytometry
A549 = assay: Mammalian cell line specificity assay (alamar blue); assay type: cell-based, human
Experimental: (§1) Mammalian cells were cultured and maintained according to ATCC specifications (ATCC, Manassas, VA). Cell line drug susceptibility assays were performed in final volumes of 25 µL using our previously described 384-well microtiter plate format,[39]. […] Test and control compounds were added to individual wells as described above. Vehicle and positive controls were 1% DMSO and 10% DMSO, respectively (final well concentrations). Assay plates were incubated for 44–46 h at 37°C in the presence of 5% CO2 and growth inhibitory effects were determined as described above. Five µL of alamar blue reagent was added to each well and incubated for 2–4 h. Data were captured as described above.

HeLa = assay: as above; assay type: cell-based, human; details: read-out: HeLa EC50 (AVE±SD), 44–46 h, alamar blue
Experimental: as §1

PC-3 = assay: as above; assay type: cell-based, human; details: read-out: PC-3 EC50 (AVE±SD), 44–46 h, alamar blue
Experimental: as §1

MDA-MB-231 = assay: as above; assay type: cell-based, human; details: read-out: MDA EC50 (AVE±SD), 44–46 h, alamar blue
Experimental: as §1

IMR-90 = assay: as above; assay type: cell-based, human; details: read-out: IMR90 EC50 (AVE±SD), 44–46 h, alamar blue
Experimental: as §1

human cell lines = assay: Human cell line panel (A549, HeLa, IMR-90, PC-3, MDA-MB-231); assay type: cell-based
Experimental: Mammalian cells were cultured and maintained according to ATCC specifications (ATCC, Manassas, VA). Cell line drug susceptibility assays were performed in final volumes of 25 µL using our previously described 384-well microtiter plate format,[39]. Briefly, for automated HTS procedures, cells (A549, IMR-90 and, HeLa, 1,000 cells; PC-3, 750 cells and; MDA-MB-231, 3,000 cells) in complete culture medium were seeded into each well of 384-well microtiter plates using a Titertek MAPC-2 bulk dispenser. Test and control compounds were added to individual wells as described above. Vehicle and positive controls were 1% DMSO and 10% DMSO, respectively (final well concentrations). Assay plates were incubated for 44–46 h at 37°C in the presence of 5% CO2 and growth inhibitory effects were determined as described above. Five µL of alamar blue reagent was added to each well and incubated for 2–4 h. Data were captured as described above.

[4] = Leishmania major, 144 h, pH 4.9, read-out: L. major axenic amastigote-like EC50 (AVE±SD) Confirmation Alamar Blue
[5] = Leishmania major, read-out: EC50 Ave ± SD, Lm
[6] = Homo sapiens, A549, Table S1, PMLSC library samples, read-out: EC50 Ave ± SD, A549
[7] = Leishmania major, pH 4.9, 144 h, 32°C, read-out: L. major axenic amastigote-like EC50 (AVE±SD) Confirmation Alamar Blue
[8] = Leishmania major, 48 h, compounds from commercial supplier, 44 h + 4 h alamar blue, 28°C, read-out: L. major promastigote EC50 (AVE±SD) Confirmation Alamar Blue
[9] = Leishmania major, Table S1, PMLSC library samples, 10-point 0.01–5.00 µM, read-out: EC50 Ave ± SD, Lm
[10] = Homo sapiens, A549, 44–46 h, alamar blue, read-out: A549 EC50 (AVE±SD)

Compound: CC(C)(C)c1ccc(C(=O)C2CCCN(C3CCC3)C2)cc1 (stereo not drawn) [CID 16187595]
EC50 [1, 4]: 2.3 ± 0.2 µM
EC50 (L. major promastigotes [2]; [5]): 0.014 ± 0.013 µM
EC50 (L. major promastigotes [3]; Leishmania major): 0.04 ± 0.01 µM
EC50 (A549; Homo sapiens, A549, read-out: EC50 Ave ± SD, A549): > 5 µM

Compound: Cc1[nH]c2c(Cl)cccc2c(=O)c1CN1CCCC1 [CID 728862]
EC50 [1, 4]: 4.3 ± 0.8 µM
EC50 (L. major promastigotes [2]; [5]): 0.392 ± 0.05 µM
EC50 (L. major promastigotes [3]; Leishmania major): 1.77 ± 0.12 µM
EC50 (A549; [6]): > 5 µM

Compound: CCN(CC)CCN(C)C1CCC(c2ccccc2)CC1 (stereo not drawn) [CID 742546]
EC50 [1, 4]: > 50 µM
EC50 (L. major promastigotes [2]; [5]): 0.827 ± 0.116 µM
EC50 (L. major promastigotes [3]; Leishmania major): 0.43 ± 0.3 µM
EC50 (A549; [6]): > 5 µM

Compound: COc1cccc2c(=O)c(C/C=C(/C)Cl)c(C)[nH]c12 [CID 760847]
EC50 [1, 4]: 0.21 ± 0.09 µM
growth inhibitory activity in axenic amastigote-like assay [1]: comparable to amphotericin B
EC50 (L. major promastigotes [2]; [5]): 0.108 ± 0.023 µM
EC50 (L. major promastigotes [3]; Leishmania major): 0.2 ± 0.05 µM
EC50 (A549; [6]): > 5 µM

Compound: Pentamidine Isethionate [reference compound]
EC50 ([1]; read-out: L. major axenic amastigote-like EC50 (AVE±SD) Confirmation Alamar Blue, pH 4.9, 144 h, 32°C): 1.26 ± 0.04 µM
EC50 (L. major promastigotes [2]; read-out: EC50 Ave ± SD, Lm, Table S1, PMLSC library samples, 10-point 0.01–5.00 µM): 0.046 ± 0.012 µM
primary hit (≥50% inhibition of signal readout) (L. major promastigotes [2]; single concentration 10 µM, LOPAC, UP-CMLD DP validation set or PMLSC library): primary hits
EC50 (L. major promastigotes [3]; 28°C, ViaCount, 0.1–50 µM): 0.73 ± 0.39 µM
EC50 (A549; read-out: A549 EC50 (AVE±SD), 44–46 h, alamar blue): > 50 µM
EC50 (A549; read-out: EC50 Ave ± SD, A549, Table S1, PMLSC library samples): > 5 µM
EC50 (HeLa): > 50 µM
EC50 (PC-3): > 50 µM
EC50 (MDA-MB-231): > 50 µM
EC50 (IMR-90): > 50 µM

Compound: Cc1ccc(S(=O)(=O)c2ccc(Oc3cccc(C)c3)cc2)cc1 [CID 786799]
EC50 [1, 4]: 3.6 ± 0.13 µM
EC50 (L. major promastigotes [2]; [5]): 0.18 ± 0.035 µM
EC50 (L. major promastigotes [3]; Leishmania major): 2.22 ± 0.11 µM
EC50 (A549; [6]): > 5 µM

EC50 [1, 7]: 1.1 ± 0.06 µM
EC50 (L. major promastigotes [2]; [8]): 0.006 ± 0.001 µM
EC50 (L. major promastigotes [2]; [9]): 0.177 ± 0.003 µM
EC50 (A549; [10]): 4.4 ± 0.4 µM
EC50 (A549; [6]): > 5 µM
EC50 (HeLa; Homo sapiens, HeLa): 3.9 ± 3 µM
EC50 (PC-3; Homo sapiens, PC-3): > 50 µM
EC50 (MDA-MB-231; Homo sapiens, MDA-MB-231): > 50 µM
Compound: N[C@H](C(=O)O)[C@@H]1CC(Cl)=NO1 [Acivicin, reference compound]
growth inhibition of human cell lines tested (human cell lines): inhibited the growth of human cell lines tested
EC50 (L. major promastigotes [3]; Leishmania major): 0.04 ± 0.01 µM
EC50 (IMR-90; Homo sapiens, IMR-90): 6.7 ± 0.4 µM

Compound: Cc1cc(C)nc(/N=C2\SNSC2Cl)c1 (stereo not drawn) [CID 757789]
EC50 [1, 4]: 3.2 ± 0.8 µM
EC50 (L. major promastigotes [2]; [5]): 0.353 ± 0.025 µM
EC50 (L. major promastigotes [3]; Leishmania major): 1.94 ± 0.15 µM
EC50 (A549; [6]): > 5 µM

Compound: C[C@@]1(CO)[C@H](O)CC[C@@]2(C)[C@H]1CC[C@H]1C[C@@H]3C[C@@]12CC[C@]3(O)CO [Aphidicolin, reference compound]
EC50 [1, 7]: 0.05 ± 0.01 µM
growth inhibitory activity in axenic amastigote-like assay [1]: comparable to amphotericin B
EC50 (L. major promastigotes [2]; [8]): 0.22 ± 0.02 µM
EC50 (L. major promastigotes [2]; [9]): 0.121 ± 0.02 µM
EC50 (L. major promastigotes [3]; Leishmania major): 0.39 ± 0.11 µM
EC50 (A549; [10]): > 50 µM
EC50 (A549; [6]): > 5 µM
EC50 (HeLa; Homo sapiens, HeLa): > 50 µM
EC50 (PC-3; Homo sapiens, PC-3): > 50 µM
EC50 (MDA-MB-231; Homo sapiens, MDA-MB-231): > 50 µM
EC50 (IMR-90; Homo sapiens, IMR-90): > 50 µM
